Results taken from the METLIN SMRT retention time set (Domingo-Almenara et al. 2019).

Experiment: gradient 5% acetonitrile 3 min, to 50% in 2 min, to 85% in 15 min, held 3 min, 100 µL/min
Conditions: column: Zorbax Extend-C18 2.1 x 50 mm; eluents: water / acetonitrile, 0.1% formic acid
How it was run: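 Pure standards were run in mixtures of ~100 molecules by HPLC coupled to a quadrupole time-of-flight mass spectrometer. The column was a Zorbax Extend-C18 (2.1 × 50 mm, 1.8 μm) at 100 μL/min, with water and acetonitrile each containing 0.1% formic acid, in positive and negative ionization mode. Dead and dwell volumes were 40 μL and 900 μL. Retention time was taken from computationally picked adduct peaks, each manually inspected, with data collected over 3 months.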

Row | Compound | RP-LC retention time [s]
1 | O=C(N1CCCC(c2nnnn2-c2ccccc2)C1)C1(c2ccccc2)CC1 (centres undefined) | 839
2 | O=C(NC1CCCCC1)N(Cc1ccccn1)Cc1ccco1 | 635
3 | N#CCCN1CCN(c2ccc(NC(=O)c3ccc(Br)cc3)c(C(=O)O)c2)CC1 | 678
4 | CC(C)n1cnc(S(=O)(=O)N2CCCC(C(=O)Nc3cccc(Br)c3)C2)c1 (centres undefined) | 898
5 | Cc1nn(CC(=O)N2CCCC2)c(=O)c2nc(-c3ccccc3)sc12 | 756
6 | Cc1ccc(C2=NC3(CCN(C(=O)c4ccc5c(c4)OCO5)CC3)ON2)cc1 | 939
7 | COc1ccc(OC)c(-c2[nH]ncc2CN2CC(F)(F)C[C@H]2CN2CCCCC2)c1 | 632
8 | Cc1ccc(Nc2c(-c3ccc(N(C)C)cc3)nc3ccc(Cl)cn23)cc1 | 818
9 | Cn1ccc2ccn(CC(=O)Nc3ccccc3)c(=O)c21 | 737
10 | Cc1ccnc(N2CCC(C(=O)N3CCN(C(=O)c4ccco4)CC3)CC2)n1 | 616
11 | CCCCN(CC)c1nc(-c2ccc(C)cc2)nc2ccccc12 | 941
12 | Cc1ccc(C)c(C(=O)NCc2ccc3c(c2)ncn3C)c1 | 604
13 | Cc1nnc(N2CCCC(C(=O)NCc3cccs3)C2)c2nn(-c3ccc(Cl)cc3)c(C)c12 (centres undefined) | 742
14 | O=C1NC2(CCN(C(=O)c3ccc4c(c3)OCO4)CC2)Nc2cc(Cl)ccc21 | 708
15 | O=c1n(Cc2cccc(Br)c2)nc2c(S(=O)(=O)N3CCCCC3)cccn12 | 941
16 | COc1ccc(Cl)cc1S(=O)(=O)N1CCC(C(=O)NCCc2csc(C)n2)CC1 | 732
17 | CCCN(Cc1ccc(Cl)cc1)Cc1cc(=O)n2ccc(C)cc2n1 | 669
18 | Cc1cc(C)n2c(Nc3ccccc3C)c(-c3ccc(O)cc3)nc2n1 | 907
19 | CN1CCC(NC(=O)c2ccc(-n3cc(CNC(=O)C4CCC4)cn3)cc2)CC1 | 585
20 | C=CCN1CC[C@@]2(C)c3cc(O)ccc3CC1[C@@H]2C | 644
21 | CC1CCCN(c2nc(C(=O)NC3CC3)cs2)C1 (centres undefined) | 590
22 | O=S(=O)(c1cc(-c2ccno2)cs1)N(Cc1cccs1)C1CCCCC1 | 1190
23 | COc1ccccc1CCNC(=O)CSC1CCc2ccccc2NC1=O (centres undefined) | 784

Row | Compound | RP-LC retention time [s]
24 | Cc1cccc(N2CCN(c3ccc4cc(S(=O)(=O)N5CCC(C)CC5)ccc4n3)CC2C)c1 (centres undefined) | 1200
25 | COc1ccccc1/C=C/C(=O)N1CCC(c2cc(N)on2)CC1 | 720
26 | COc1ccc(Nc2cc(C(=O)N3CCC(C)CC3)nc3cc(OC)c(OC)cc23)cc1Cl | 778
27 | COc1cccc(CC(=O)N2CCC3(CC2)NC(=O)c2ccc(F)cc2N3C)c1 | 756
28 | Cc1ccc(CNC(=O)C2CCN(S(=O)(=O)c3cc(C(=O)N(C)C)cs3)CC2)o1 | 708
29 | CCC(C)NC(=O)Cn1cccc(-c2nc(-c3ccc(OC)c(OC)c3)no2)c1=O (centres undefined) | 714
30 | O=C(Nc1c(-c2ccccc2)nc2ccccn12)c1ccc(Cl)c([N+](=O)[O-])c1 | 696
31 | CCNC(=O)NCC1CCN(S(=O)(=O)C2CC2)CC1 | 579
32 | O=C(Nc1nc(-c2ccc(F)cc2)cs1)C1CC1 | 884
33 | CCC(CC)NC(=O)C1CCCCc2nnc(C(C)C)n21 (centres undefined) | 664
34 | Cc1ccccc1C(=O)N1CCC2(CC1)NC(=O)c1cc(F)ccc1N2C | 749
35 | Cc1noc(-c2cccnc2SCC(=O)Nc2cccc(Br)c2)n1 | 895
36 | O=C(CSCc1nc2cccnc2n1C1CCCCC1)N1CCN(c2ccccn2)CC1 | 649
37 | CCCN1CCN(C(=O)Cn2nc(C)c3sc(CC)nc3c2=O)CC1 | 577
38 | O=C(Cn1nc2c(Oc3ccc(Cl)cc3)nccn2c1=O)Nc1ccc(F)c(Cl)c1 | 990
39 | O=C(NCc1cccc(C(F)(F)F)c1)c1ccnc(N2CCCCC2)n1 | 1140
40 | Cc1nc(C2CN(S(=O)(=O)c3cc(F)ccc3F)CC23CCOCC3)no1 (centres undefined) | 834
41 | CCC(C)NC(=O)C1CCCN(c2nnc(C)c3c(C)n(-c4ccc(Cl)cc4)nc23)C1 (centres undefined) | 746
42 | CCn1cc(CCNC(=O)Cc2cccs2)c2cccnc21 | 651
43 | COc1ccc(NC(=O)NCC(c2cccnc2)c2c[nH]c3ccccc23)c(OC)c1 (centres undefined) | 650
44 | CCOc1ccc(-c2cc3c(=O)n(Cc4nc(-c5ccccc5C)no4)ncn3n2)cc1 | 1130
45 | O=C(NC1CCCCC1)C1CCCN(c2ccc(=O)n(-c3cccc(F)c3)n2)C1 (centres undefined) | 785
46 | COCc1c(C(=O)O)nnn1-c1ccc2c(c1)OCCO2 | 666

Row | Compound | RP-LC retention time [s]
47 | COc1cccc(-c2nc(C3CCN(S(=O)(=O)c4ccc(C)c(C)c4)CC3)no2)c1 | 1180
48 | COc1ccc(C(=O)Oc2cc(C)nn2-c2nc3ccccc3[nH]2)cc1 | 643
49 | COc1ccc(CC(=O)Nc2c(C(=O)N3CCN(c4ccccn4)CC3)oc3ccccc23)cc1 | 675
50 | FC(F)(F)c1ccc(CN2CCN(c3cnn4cnnc4c3)CC2)cc1 | 594
51 | CC(C)Oc1ccc(CNC(=O)C2CCCN(c3ccc(=O)n(-c4ccc(F)cc4)n3)C2)cc1 (centres undefined) | 900
52 | CCc1nc2cccnc2n1CCN1CCN(C(=O)Nc2ccccc2Cl)CC1 | 583
53 | CCOc1ccc(S(=O)(=O)Nc2ccc3c(c2)CCC(=O)N3CC(C)C)cc1 | 901
54 | Cc1cc2nc(CN3CCN(Cc4ccccc4)CC3)c(=O)[nH]c2cc1C | 620
55 | O=C(Cc1ccc(NC(=O)c2cnc3ccccc3n2)cc1)NCC(F)(F)F | 756
56 | CON(C)C(=O)C1CN(C(=O)COc2ccccc2F)C1 | 629
57 | Cc1noc2ncnc(N3CCC(C(=O)NCCCN4CCCCC4C)CC3)c12 (centres undefined) | 587
58 | CC1CCCCN1CCNC(=O)C1CCN(c2nc3cccnc3s2)CC1 (centres undefined) | 582
59 | Cc1nc(-n2nc(C)c(Cl)c2C)sc1C(=O)N1CCCCC1 | 1200
60 | COc1ccc(NC(=O)C2CCN(c3cnc4nc(C)c(C)nc4c3)CC2)cc1Cl | 756
61 | CCOC(=O)C1=C(C)NC2=C(C(=O)c3ccccc32)C1c1cccc(OC)c1OC (centres undefined) | 902
62 | CN1c2cc(F)ccc2C(=O)NC12CCN(C(=O)Cc1ccccc1Cl)CC2 | 783
63 | Nc1ccc(Oc2ccc(N)c([N+](=O)[O-])c2)cc1[N+](=O)[O-] | 899
64 | CC1CN2C=NC(N3CCN(C(=O)Nc4ccccc4C(F)(F)F)CC3)=CC2=N1 (centres undefined) | 616
65 | COc1ccc(NC(=O)N2CCC3(C2)C(=O)N(C)c2ccccc23)cc1OC (centres undefined) | 808
66 | O=C(N[C@H]1C[C@@H]2C[C@H]1N(S(=O)(=O)c1cc(F)cc(F)c1)C2)c1ccccc1 | 870
67 | Cc1sc2ccn(C)c(=O)c2c1C(=O)NCc1ccc(N2CCCCC2)cc1 | 580
68 | O=C(Nc1ccc2c(c1)OCO2)C(=O)NC1CC1 | 677
69 | Cc1ccc(-c2nc(NC(=O)Cc3csc(C)n3)sc2C)cc1 | 944

Row | Compound | RP-LC retention time [s]
70 | COc1cc(NC(=O)N2CCN(c3cc(C)nc(N4CCOCC4)n3)CC2)cc(OC)c1 | 627
71 | O=C(NCc1csc(-c2ccccc2)n1)C1CCN(C(=O)Nc2ccccc2)CC1 | 766
72 | CC1(C(=O)NC2CCCC2)CN(S(=O)(=O)c2ccccc2)CC(=O)N1c1ccc(F)cc1 (centres undefined) | 892
73 | CCCc1nc(NCc2ccccn2)ncc1C(=O)O | 571
74 | O=C(c1c(F)cccc1Cl)N1CCCC(c2nnc(-c3ccccc3F)s2)C1 (centres undefined) | 920
75 | CCCN1CCN(c2cc(C(=O)O)c3cc(NS(=O)(=O)c4ccccc4)ccc3n2)CC1 | 1110
76 | CC1CCCN(CC2CCN(C(=O)Nc3ccc(Br)cc3)CC2)C1 (centres undefined) | 661
77 | Cc1noc(C)c1CC(=O)N1CCCn2ccnc2C1C1CCCC1 (centres undefined) | 595
78 | Cc1ccccc1-c1noc(C2CC(=O)N(c3ccc(Cl)cc3)C2)n1 (centres undefined) | 1090
79 | CCOCCCNC(=O)C(C)n1nc(C)c2c(C)n(-c3ccccc3)nc2c1=O (centres undefined) | 721
80 | CSc1ccccc1C(=O)N(CCN(C)C)c1nc2ccc([N+](=O)[O-])cc2s1 | 615
81 | CC(=O)Nc1cc(-c2nc(-c3ccc4oc(C)nc4c3)no2)ccc1C | 803
82 | CCCCN(C)C(=O)c1cnc(-c2ccc(C)cc2)nc1-c1ccncc1 | 968
83 | CCn1cnc2ccc(-c3noc(-c4ccoc4)n3)cc21 | 683
84 | Cc1cc(C(=O)Nc2c(F)cc(F)cc2Br)n(-c2ccccc2)n1 | 884
85 | CCCN1CCN(C(=O)C(C)C2CCN(S(=O)(=O)c3ccc(Cl)s3)CC2)CC1 (centres undefined) | 674
86 | CCn1ncc(Cl)c1C(=O)N1CCCC1c1c(C)noc1C (centres undefined) | 734
87 | CCCCS(=O)(=O)N1CCc2nc(-c3ccc(Cl)cc3)ncc2C1 | 1130
88 | C[C@@H]1C(=O)O[C@H]2C[C@@]34[C@H]5C[C@@H](C(C)(C)C)[C@]36[C@@H](OC(=O)[C@@H]6O)O[C@@]4(C(=O)O5)[C@]21O | 715
89 | CCOc1cccc(CNc2ncc(C(=O)O)c(C)n2)c1 | 758
